{"source": "patent US20230002736A1", "about": "“ENDODERM DIFFERENTIATION FROM PLURIPOTENT STEM CELL LINES” (priority 2019, published 2023)", "key": {"iPSC lines [1]": {"system": "iPSC lines", "assay_type": "cell-based", "details": "protocol without doxycycline"}, "iPSC line AS7192": {"system": "iPSC line AS7192", "experiment": "Endoderm induction compound comparison, cell number at day 7, line AS7192", "assay_type": "cell-based, human", "details": "1 μM concentration", "experimental": "FIG. 2. Doxycycline Enhanced Endoderm. A: Immunofluorescence and bright-field images showing induction of iPSC line 1023-5 to definitive endoderm (DE) with Hoechst 33342 nuclear staining in blue, and antibody staining in green for OCT3/4, FOXA, HNF1p and CXCR4 with AlexaFluor 488 secondary (green) antibody. […] (scale bar=[…]); B: Compound Screen showing other antibiotics and other compounds affecting the mitochondria were compared to doxycycline. […] The number of cells is shown measured seven days after induction compared to the plating density at day 0 (n=2); C: Comparison of Tetracycline Derivatives in iPSC lines AG02261. […] The number of cells is shown measured seven days after induction compared to the plating density at day 0. […] FIG. 9. Comparison of Tetracycline Derivatives and Other Compounds in additional cell line. A: Induction of iPSC lines AS7192 was performed. […] The number of cells was measured seven days after induction compared to the plating density at day 0. […] Induction of Definitive Endoderm (days 1-7). iPSCs were plated on 6-, 12-, or 96-well Matrigel-coated plates at different densities for differentiation in iPSC media containing 10 μM Y-27632 and 2 μM doxycycline. For example, typical plating density in a single well of a 6-well plate was 500,000 cells or 20,000 cells per well for 96-well plates. […]"}, "iPSC line AG02261": {"system": "iPSC line AG02261", "experiment": "Endoderm induction compound comparison, cell number at day 7, line AG02261", "assay_type": "cell-based, human", "details": "for response in compound screen, number of cells seven days after induction: cell line AG02261, FIG. 2B; for effect on endoderm induction at high concentration: AG02261, 10 μM concentration", "experimental": "FIG. 2. Doxycycline Enhanced Endoderm. A: Immunofluorescence and bright-field images showing induction of iPSC line 1023-5 to definitive endoderm (DE) with Hoechst 33342 nuclear staining in blue, and antibody staining in green for OCT3/4, FOXA, HNF1p and CXCR4 with AlexaFluor 488 secondary (green) antibody. […] (scale bar=[…]); B: Compound Screen showing other antibiotics and other compounds affecting the mitochondria were compared to doxycycline. […] The number of cells is shown measured seven days after induction compared to the plating density at day 0 (n=2); C: Comparison of Tetracycline Derivatives in iPSC lines AG02261. […] The number of cells is shown measured seven days after induction compared to the plating density at day 0. […] Induction of Definitive Endoderm (days 1-7). iPSCs were plated on 6-, 12-, or 96-well Matrigel-coated plates at different densities for differentiation in iPSC media containing 10 μM Y-27632 and 2 μM doxycycline. For example, typical plating density in a single well of a 6-well plate was 500,000 cells or 20,000 cells per well for 96-well plates. The differentiation process consisted of one week of RPMI media supplemented with Gem21 NeuroPlex without insulin at 1× (supplied at 50×, Gemini Bio-Products West Sacramento, Calif., catalog #400-962, or supplemented with Gibco B27 without insulin at 1×), Glutagro at 1× (Corning, Manassas, Va., catalog #25-015-CI, non-essential amino acids at 1× (Gibco, catalog #11-140-050), sodium butyrate (0.5 mM, Sigma Aldrich, catalog #B5887) and recombinant human Activin A (100 ng/mL, Peprotech, Rocky Hill, N.J., catalog #120-14E) for 7 days. On day 1, 2% KnockOut Serum Replacement (KSR; Gibco Catalog #10828028), CHIR-99021 (10 ng/mL, Selleckchem catalog #S2924), PI-103 (10 ng/mL,Selleckchem catalog #S1038), recombinant human BMP4 (10 ng/mL, Peprotech catalog #120-05ET) and FGF2 (20 ng/mL, Peprotech catalog #100-18B) were added to the media. On day 2, 1% KSR, PI-103 (10 ng/mL) and BMP4 (10 ng/mL) and FGF2 (20 ng/mL) and on day 3, 0.2% KSR and PI-103 (10 ng/mL) were added to the media. Doxycycline hyclate (Acros Organics catalog #446061000) was added throughout definitive endoderm induction starting on day 0 (passage day) at various concentrations, as described herein, with a standard concentration being 2 μM. These steps can be performed at normal room oxygen at about 20% or at low oxygen between 4 and 6%."}, "iPSC lines [2]": {"system": "iPSC lines", "assay_type": "cell-based", "details": "for ability to enhance survival of cells during induction to endoderm, other antibiotic classes compared to doxycycline: FIGS. 2B and 9B; for effect of adding Y-27632 to the protocol including doxycycline: cell lines still difficult to induce", "experimental": "Induction of Definitive Endoderm (days 1-7). iPSCs were plated on 6-, 12-, or 96-well Matrigel-coated plates at different densities for differentiation in iPSC media containing 10 μM Y-27632 and 2 μM doxycycline. For example, typical plating density in a single well of a 6-well plate was 500,000 cells or 20,000 cells per well for 96-well plates. The differentiation process consisted of one week of RPMI media supplemented with Gem21 NeuroPlex without insulin at 1× (supplied at 50×, Gemini Bio-Products West Sacramento, Calif., catalog #400-962, or supplemented with Gibco B27 without insulin at 1×), Glutagro at 1× (Corning, Manassas, Va., catalog #25-015-CI, non-essential amino acids at 1× (Gibco, catalog #11-140-050), sodium butyrate (0.5 mM, Sigma Aldrich, catalog #B5887) and recombinant human Activin A (100 ng/mL, Peprotech, Rocky Hill, N.J., catalog #120-14E) for 7 days. On day 1, 2% KnockOut Serum Replacement (KSR; Gibco Catalog #10828028), CHIR-99021 (10 ng/mL, Selleckchem catalog #S2924), PI-103 (10 ng/mL,Selleckchem catalog #S1038), recombinant human BMP4 (10 ng/mL, Peprotech catalog #120-05ET) and FGF2 (20 ng/mL, Peprotech catalog #100-18B) were added to the media. On day 2, 1% KSR, PI-103 (10 ng/mL) and BMP4 (10 ng/mL) and FGF2 (20 ng/mL) and on day 3, 0.2% KSR and PI-103 (10 ng/mL) were added to the media. Doxycycline hyclate (Acros Organics catalog #446061000) was added throughout definitive endoderm induction starting on day 0 (passage day) at various concentrations, as described herein, with a standard concentration being 2 μM. These steps can be performed at normal room oxygen at about 20% or at low oxygen between 4 and 6%."}}, "note": "Entries after “also recorded” stand apart in the source; their conditions may differ. Where two headings read alike, the source gives them in different places."}
{"compound": "Cc1c[nH]c(-c2cnc(NCCNc3ccc(C#N)cn3)nc2-c2ccc(Cl)cc2Cl)n1", "note": "[CHIR99021]", "values": [{"measurement": "effect on number of cells in endoderm induction", "setting": "iPSC lines [1]; addition in the first 24 hours", "value": "improved the number of cells in multiple different cell lines"}]}
{"compound": "CN(C)[C@@H]1C(O)=C(C(N)=O)C(=O)[C@@]2(O)C(O)=C3C(=O)c4c(O)ccc(Cl)c4[C@@H](O)[C@H]3C[C@@H]12", "note": "[Demeclocycline, demeclocycline]", "values": [{"measurement": "ability to rescue endoderm induction compared to doxycycline", "setting": "iPSC line AS7192", "value": "to some extent"}]}
{"compound": "N=C(N)SCCc1ccc(OCc2ccc([N+](=O)[O-])cc2)cc1", "note": "[KB-R7943]", "values": [{"measurement": "response in compound screen, number of cells seven days after induction", "setting": "iPSC line AG02261", "value": "showed responses at specific doses"}]}
{"compound": "C=C1c2cccc(O)c2C(=O)C2=C(O)[C@]3(O)C(=O)C(C(N)=O)=C(O)[C@@H](N(C)C)[C@@H]3[C@@H](O)[C@H]12", "note": "[Methacycline, methacycline]", "values": [{"measurement": "effect on endoderm induction at high concentration", "setting": "iPSC line AG02261", "value": "mostly toxicity"}]}
{"compound": "CN(C)c1ccc(O)c2c1C[C@H]1C[C@H]3[C@H](N(C)C)C(O)=C(C(N)=O)C(=O)[C@@]3(O)C(O)=C1C2=O", "note": "[Minocycline, minocycline]", "values": [{"measurement": "effect on endoderm induction at high concentration", "setting": "iPSC line AG02261", "value": "mostly toxicity"}]}
{"compound": "COc1ccc(C[C@H](N)C(=O)N[C@H]2[C@@H](O)[C@H](n3cnc4c(N(C)C)ncnc43)O[C@@H]2CO)cc1", "note": "[Puromycin]", "values": [{"measurement": "ability to enhance survival of cells during induction to endoderm, other antibiotic classes compared to doxycycline", "setting": "iPSC lines [2]", "value": "only Gentamicin showed a similar statistically significant ability"}]}
{"compound": "N.N.N.N.N.N.N.N.N.N.N.N.N.N.[Cl-].[Cl-].[Cl-].[Cl-].[Cl-].[Cl-].[O-2].[O-2].[Ru+3].[Ru+3].[Ru+4]", "note": "[Ruthenium Red]", "values": [{"measurement": "response in compound screen, number of cells seven days after induction", "setting": "iPSC line AG02261", "value": "showed responses at specific doses"}]}
{"compound": "C[C@@H](N)[C@H]1CC[C@H](C(=O)Nc2ccncc2)CC1", "note": "[Y-27632]", "values": [{"measurement": "effect of adding Y-27632 to the protocol including doxycycline", "setting": "iPSC lines [2]", "value": "promoted the efficient and complete differentiation of these cell lines"}, {"measurement": "effect of adding Y-27632 to the protocol including doxycycline", "setting": "iPSC lines [2]; listed as Y27632", "value": "led to the rescue of additional stem cell lines"}, {"measurement": "rescue of induction by Y-27632 alone", "setting": "iPSC lines [1]; resistant lines", "value": "does not produce the same robust induction; also recorded: not able to rescue resistant lines"}]}
{"compound": "CC1(C)S[C@@H]2[C@H](NC(=O)[C@H](N)c3ccccc3)C(=O)N2[C@H]1C(=O)O", "note": "[ampicillin]", "values": [{"measurement": "ability to enhance survival of cells during induction to endoderm, other antibiotic classes compared to doxycycline", "setting": "iPSC lines [2]", "value": "only Gentamicin showed a similar statistically significant ability"}]}
{"compound": "Gentamicin [Gentamycin]", "values": [{"measurement": "number of cells seven days after induction compared to the plating density at day 0 (compound screen)", "setting": "iPSC lines [2]; antibiotics and mitochondria-affecting compounds compared to doxycycline, FIG. 2B", "value": "strong increasing dose response"}]}
